Among the data in patent US20150299219A1, “BICYCLIC PYRAZOLONE COMPOUNDS AND METHODS OF USE” (Calitor Sciences, LLC, priority 2014, published 2015) are IC50 values, retold here.

Common to all, as to assay type: biochemical
Experiment [1] has as its target T1, Axl (h) (Homo sapiens, UniProt P30530).
T1 construct: purchased Millipore UK Ltd
T1 sequence (P30530 26-894): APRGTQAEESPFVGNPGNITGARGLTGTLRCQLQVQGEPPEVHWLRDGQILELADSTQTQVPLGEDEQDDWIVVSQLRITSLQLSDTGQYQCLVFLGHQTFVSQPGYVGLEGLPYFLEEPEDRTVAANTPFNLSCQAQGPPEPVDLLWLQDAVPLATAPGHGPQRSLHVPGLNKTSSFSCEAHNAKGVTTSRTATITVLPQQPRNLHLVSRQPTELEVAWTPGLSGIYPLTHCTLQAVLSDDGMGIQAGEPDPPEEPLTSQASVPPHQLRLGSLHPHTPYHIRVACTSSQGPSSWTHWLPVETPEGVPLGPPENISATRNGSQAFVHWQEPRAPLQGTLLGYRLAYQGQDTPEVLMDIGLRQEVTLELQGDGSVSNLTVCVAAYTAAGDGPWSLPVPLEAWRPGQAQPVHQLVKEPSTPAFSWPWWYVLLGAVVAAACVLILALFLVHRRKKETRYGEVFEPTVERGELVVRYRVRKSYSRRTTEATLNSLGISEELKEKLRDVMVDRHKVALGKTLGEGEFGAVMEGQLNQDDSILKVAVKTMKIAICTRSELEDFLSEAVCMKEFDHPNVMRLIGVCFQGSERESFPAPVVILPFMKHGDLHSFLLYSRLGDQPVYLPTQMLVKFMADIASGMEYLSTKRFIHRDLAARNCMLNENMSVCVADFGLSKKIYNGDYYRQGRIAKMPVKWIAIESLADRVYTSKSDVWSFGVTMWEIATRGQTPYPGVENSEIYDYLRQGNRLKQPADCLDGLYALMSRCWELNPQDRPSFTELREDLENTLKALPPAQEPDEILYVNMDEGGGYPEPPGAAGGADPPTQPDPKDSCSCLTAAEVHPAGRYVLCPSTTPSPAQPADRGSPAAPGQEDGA
Put plainly: Axl (h) kinase assay. How it is done:
(§1) The above assay procedure can be used to determine the IC50 for inhibition and/or the inhibition constant, Ki. The IC50 is defined as the concentration of compound required to reduce the enzyme activity by 50% under the condition of the assay. The IC50 value is estimated by preparing a 10 point curve using a 1/2 log dilution series (for example, a typical curve may be prepared using the following compound concentrations: 10 μM, 3 μM, 1 μM, 0.3 μM, 0.1 μM, 0.03 μM, 0.01 μM, 0.003 μM, 0.001 μM and 0 μM).
Axl (h) is incubated with 8 mM MOPS pH 7.0, 0.2 mM EDTA, 250 μM KKSRGDYMTMQIG, 10 mM MgAcetate and [γ-^33P-ATP] (specific activity approx. 500 cpm/pmol, concentration as required). The reaction is initiated by the addition of the MgATP mix. After incubation for 40 minutes at room temperature, the reaction is stopped by the addition of 3% phosphoric acid solution. 10 μL of the reaction is then spotted onto a P30 filtermat and washed three times for 5 minutes in 75 mM phosphoric acid and once in methanol prior to drying and scintillation counting.
(§2) The kinase assays described herein were performed at Millipore UK Ltd, Dundee Technology Park, Dundee DD2 1SW, UK.

The target in experiment [2] is T2, Mer (h) (Homo sapiens, UniProt Q12866).
T2 construct: purchased Millipore UK Ltd
T2 sequence (Q12866 21-999): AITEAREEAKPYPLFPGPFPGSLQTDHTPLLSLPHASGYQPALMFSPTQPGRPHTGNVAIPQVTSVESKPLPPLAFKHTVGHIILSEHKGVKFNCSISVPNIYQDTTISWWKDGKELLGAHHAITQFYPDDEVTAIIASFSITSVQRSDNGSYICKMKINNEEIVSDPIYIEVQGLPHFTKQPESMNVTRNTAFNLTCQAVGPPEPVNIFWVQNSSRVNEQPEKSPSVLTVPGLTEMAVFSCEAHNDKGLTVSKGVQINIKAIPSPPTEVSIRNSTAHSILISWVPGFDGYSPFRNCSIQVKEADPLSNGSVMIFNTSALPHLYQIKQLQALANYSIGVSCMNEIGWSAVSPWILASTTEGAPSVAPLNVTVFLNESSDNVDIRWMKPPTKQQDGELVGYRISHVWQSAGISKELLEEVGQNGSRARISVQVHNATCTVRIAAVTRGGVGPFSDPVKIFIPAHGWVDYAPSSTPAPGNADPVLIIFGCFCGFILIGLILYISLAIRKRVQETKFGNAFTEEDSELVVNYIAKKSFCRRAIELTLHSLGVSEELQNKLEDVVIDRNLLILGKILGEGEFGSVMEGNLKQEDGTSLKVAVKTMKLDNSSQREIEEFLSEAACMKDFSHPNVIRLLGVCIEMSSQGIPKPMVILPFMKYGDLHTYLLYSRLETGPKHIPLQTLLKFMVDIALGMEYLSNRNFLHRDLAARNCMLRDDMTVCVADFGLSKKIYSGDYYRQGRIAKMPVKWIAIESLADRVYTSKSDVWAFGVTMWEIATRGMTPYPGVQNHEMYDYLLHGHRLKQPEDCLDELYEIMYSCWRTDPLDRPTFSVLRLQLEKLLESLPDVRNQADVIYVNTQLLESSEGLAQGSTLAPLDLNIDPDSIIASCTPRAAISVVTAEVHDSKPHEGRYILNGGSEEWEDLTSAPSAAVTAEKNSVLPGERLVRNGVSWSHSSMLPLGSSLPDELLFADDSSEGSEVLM
In words: Mer (h) kinase assay. The procedure:
as §1
Mer (h) is incubated with 8 mM MOPS pH 7.0, 0.2 mM EDTA, 30 mM NaCl, 250 μM GGMEDIYFEFMGGKKK, 10 mM MgAcetate and [γ-^33P-ATP] (specific activity approx. 500 cpm/pmol, concentration as required). The reaction is initiated by the addition of the MgATP mix. After incubation for 40 minutes at room temperature, the reaction is stopped by the addition of 3% phosphoric acid solution. 10 μL of the reaction is then spotted onto a P30 filtermat and washed three times for 5 minutes in 75 mM phosphoric acid and once in methanol prior to drying and scintillation counting.
as §2

For experiment [3], the target named is T3, c-Met (h) (Homo sapiens, UniProt P08581).
T3 construct: purchased Millipore UK Ltd
Put plainly: c-Met (h) kinase assay. The procedure:
Kinase assays can be performed by measurement of incorporation of γ-^33P ATP into immobilized myelin basic protein (MBP). High binding white 384 well plates (Greiner) are coated with MBP (Sigma #M-1891) by incubation of 60 μL/well of 20 μg/mL MBP in Tris-buffered saline (TBS; 50 mM Tris pH 8.0, 138 mM NaCl, 2.7 mM KCl) for 24 h at 4° C. Plates are washed 3× with 100 μL TBS. Kinase reactions are carried out in a total volume of 34 μL in kinase buffer (5 mM Hepes pH 7.6, 15 mM NaCl, 0.01% bovine gamma globulin (Sigma #I-5506), 10 mM MgCl2, 1 mM DTT, 0.02% TritonX-100). Compound dilutions are performed in DMSO and added to assay wells to a final DMSO concentration of 1%. Each data point is measured in duplicate, and at least two duplicate assays are performed for each individual compound determination. Enzyme is added to final concentrations of 10 nM or 20 nM, for example. A mixture of unlabeled ATP and γ-^33P ATP is added to start the reaction (2×10^6 cpm of γ-^33P ATP per well (3000 Ci/mmole) and 10 μM unlabeled ATP, typically. The reactions are carried out for 1 h at room temperature with shaking. Plates are washed 7× with TBS, followed by the addition of 50 μL/well scintillation fluid (Wallac). Plates are read using a Wallac Trilux counter. This is only one format of such assays; various other formats are possible, as known to one skilled in the art.
as §1
Met (h) is incubated with 8 mM MOPS pH 7.0, 0.2 mM EDTA, 250 μM KKKSPGEYVNIEFG, 10 mM MgAcetate and [γ-^33P-ATP] (specific activity approx. 500 cpm/pmol, concentration as required). The reaction is initiated by the addition of the MgATP mix. After incubation for 40 minutes at room temperature, the reaction is stopped by the addition of 3% phosphoric acid solution. 10 μL of the reaction is then spotted onto a P30 filtermat and washed three times for 5 minutes in 75 mM phosphoric acid and once in methanol prior to drying and scintillation counting.
as §2

T3 sequence (P08581 25-1390): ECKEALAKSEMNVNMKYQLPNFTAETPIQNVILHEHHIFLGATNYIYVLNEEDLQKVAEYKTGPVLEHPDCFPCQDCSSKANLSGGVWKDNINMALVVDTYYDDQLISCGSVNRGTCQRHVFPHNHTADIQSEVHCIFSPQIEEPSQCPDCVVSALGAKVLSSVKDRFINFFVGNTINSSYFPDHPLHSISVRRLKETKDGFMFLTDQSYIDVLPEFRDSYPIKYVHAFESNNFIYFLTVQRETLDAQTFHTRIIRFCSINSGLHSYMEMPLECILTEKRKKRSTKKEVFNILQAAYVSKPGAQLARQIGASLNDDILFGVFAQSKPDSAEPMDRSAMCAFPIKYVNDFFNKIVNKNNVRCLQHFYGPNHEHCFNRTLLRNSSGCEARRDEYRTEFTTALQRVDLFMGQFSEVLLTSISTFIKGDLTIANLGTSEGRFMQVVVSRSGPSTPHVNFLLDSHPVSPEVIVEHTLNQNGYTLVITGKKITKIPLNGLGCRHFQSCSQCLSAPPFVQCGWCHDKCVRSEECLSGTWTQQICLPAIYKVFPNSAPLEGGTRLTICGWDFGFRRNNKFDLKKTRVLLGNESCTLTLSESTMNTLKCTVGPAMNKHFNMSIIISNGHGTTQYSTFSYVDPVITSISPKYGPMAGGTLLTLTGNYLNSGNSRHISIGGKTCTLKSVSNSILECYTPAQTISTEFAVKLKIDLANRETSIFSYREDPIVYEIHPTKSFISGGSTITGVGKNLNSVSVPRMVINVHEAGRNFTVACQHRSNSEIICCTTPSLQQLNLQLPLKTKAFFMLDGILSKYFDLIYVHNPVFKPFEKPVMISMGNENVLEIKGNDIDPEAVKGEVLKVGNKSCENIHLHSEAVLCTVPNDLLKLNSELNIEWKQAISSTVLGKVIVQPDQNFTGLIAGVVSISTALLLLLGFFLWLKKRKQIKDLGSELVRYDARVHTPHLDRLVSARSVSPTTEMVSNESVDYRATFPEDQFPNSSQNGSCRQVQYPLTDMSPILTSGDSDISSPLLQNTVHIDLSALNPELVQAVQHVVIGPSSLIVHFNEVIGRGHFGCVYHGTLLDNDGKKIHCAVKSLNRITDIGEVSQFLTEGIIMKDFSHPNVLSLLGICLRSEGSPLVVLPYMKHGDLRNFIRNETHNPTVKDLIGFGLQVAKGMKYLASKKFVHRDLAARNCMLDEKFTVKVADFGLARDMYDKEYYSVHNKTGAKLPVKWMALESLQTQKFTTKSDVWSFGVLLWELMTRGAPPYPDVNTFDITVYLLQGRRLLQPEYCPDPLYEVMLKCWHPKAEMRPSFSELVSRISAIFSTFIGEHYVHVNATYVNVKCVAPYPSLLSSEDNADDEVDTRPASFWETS

With `O=C(Nc1ccc(Oc2ccnc(NC(=O)C3CC3)c2)c(F)c1)c1c2n(n(-c3ccccc3)c1=O)CCC2` [Ex. 5, N-(4-((2-(cyclopropanecarboxamido)pyridin-4-yl)oxy)-3-fluorophenyl)-2-oxo-1-phenyl-2,4,5,6-tetrahydro-1H-pyrrolo[1,2-b]pyrazole-3-carboxamide], the figures for the IC50 in experiment [1], in experiment [2] and in experiment [3] were 0.019 µM, 0.004 µM and 0.015 µM, respectively.

As to `CC(=O)Nc1cc(Oc2ccc(NC(=O)c3c4n(n(-c5ccccc5)c3=O)CCC4)cc2F)ccn1` [Ex. 6, N-(4-((2-acetamidopyridin-4-yl)oxy)-3-fluorophenyl)-2-oxo-1-phenyl-2,4,5,6-tetrahydro-1H-pyrrolo[1,2-b]pyrazole-3-carboxamide], the IC50 (commonly the concentration needed to halve the response being measured) came out at 0.036 µM in experiment [1], 0.033 µM in experiment [2] and 0.057 µM in experiment [3].

For `O=C(Nc1ccc(Oc2ccnc(NC(=O)C3CC3)c2)cn1)c1c2n(n(-c3ccccc3)c1=O)CCCC2` [Ex. 8, N-(5-((2-(cyclopropanecarboxamido)pyridin-4-yl)oxy)pyridin-2-yl)-2-oxo-1-phenyl-1,2,4,5,6,7-hexahydropyrazolo[1,5-a]pyridine-3-carboxamide], the values for the concentration for half-maximal inhibition (IC50) in experiment [1], in experiment [2] and in experiment [3] were 0.007 µM, 0.003 µM and 0.005 µM, respectively.

`CC(=O)Nc1cc(Oc2ccc(NC(=O)c3c4n(n(-c5ccccc5)c3=O)CCCC4)nc2)ccn1` [Ex. 9, N-(5-((2-acetamidopyridin-4-yl)oxy)pyridin-2-yl)-2-oxo-1-phenyl-1,2,4,5,6,7-hexahydropyrazolo[1,5-a]pyridine-3-carboxamide]: the concentration for half-maximal inhibition (IC50) in experiment [1] is 0.014 µM; in experiment [2], 0.012 µM; in experiment [3], 0.027 µM.

With `O=C(Nc1ccc(Oc2ccnc(NC(=O)C3CC3)c2)cn1)c1c2n(n(-c3ccccc3)c1=O)CCOC2` [Ex. 11, N-(5-((2-(cyclopropanecarboxamido)pyridin-4-yl)oxy)pyridin-2-yl)-2-oxo-1-phenyl-2,4,6,7-tetrahydro-1H-pyrazolo[5,1-c][1,4]oxazine-3-carboxamide], the figures for the IC50 in experiment [1], in experiment [2] and in experiment [3] were 0.005 µM, 0.006 µM and 0.012 µM, respectively.

As to `O=C(Nc1ccc(Oc2ccnc(NC(=O)C3CC3)c2)c(F)c1)c1c2n(n(-c3ccccc3)c1=O)CCOC2` [Ex. 17, N-(4-((2-(cyclopropanecarboxamido)pyridin-4-yl)oxy)-3-fluorophenyl)-2-oxo-1-phenyl-2,4,6,7-tetrahydro-1H-pyrazolo[5,1-c][1,4]oxazine-3-carboxamide], the figures for the 50% inhibitory concentration (IC50) in experiment [1] and in experiment [3] were 0.005 µM and 0.008 µM, respectively.

As to `CC(=O)Nc1cc(Oc2ccc(NC(=O)c3c4n(n(-c5ccccc5)c3=O)CCOC4)cc2)ccn1` [Ex. 20, N-(4-((2-acetamidopyridin-4-yl)oxy)phenyl)-2-oxo-1-phenyl-2,4,6,7-tetrahydro-1H-pyrazolo[5,1-c][1,4]oxazine-3-carboxamide], the IC50 was found to be 0.049 µM in experiment [1] and 0.044 µM in experiment [2].

As for `Nc1nccc(Oc2ccc(NC(=O)c3c4n(n(-c5ccccc5)c3=O)CCCC4)nc2)c1Cl` [Ex. 21, N-(5-((2-amino-3-chloropyridin-4-yl)oxy)pyridin-2-yl)-2-oxo-1-phenyl-1,2,4,5,6,7-hexahydropyrazolo[1,5-a]pyridine-3-carboxamide], the 50% inhibitory concentration (IC50) was 0.009 µM in experiment [1] and 0.014 µM in experiment [3].

As to `Nc1nccc(Oc2ccc(NC(=O)c3c4n(n(-c5ccccc5)c3=O)CCCC4)cc2)c1Cl` [Ex. 22, N-(4-((2-amino-3-chloropyridin-4-yl)oxy)phenyl)-2-oxo-1-phenyl-1,2,4,5,6,7-hexahydropyrazolo[1,5-a]pyridine-3-carboxamide], the IC50 in experiment [1] is 0.016 µM; in experiment [3] it was 0.054 µM.

Take `Nc1nccc(Oc2ccc(NC(=O)c3c4n(n(-c5ccccc5)c3=O)CCCC4)cc2F)c1Cl` [Ex. 23, N-(4-((2-amino-3-chloropyridin-4-yl)oxy)-3-fluorophenyl)-2-oxo-1-phenyl-1,2,4,5,6,7-hexahydropyrazolo[1,5-a]pyridine-3-carboxamide]: the IC50 in experiment [1] came out at 0.01 µM; in experiment [2], 0.014 µM; in experiment [3], 0.03 µM.
